From PubChem BioAssay (NCI)
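Growth conditions: 96-well plates. Treatment: test compound, 48 hours, 5 concentrations. Analysis: linear interpolation between bracketing concentrations; unreached endpoints set to highest concentration. The concentration for 50% growth inhibition is given as GI50. TGI: total growth inhibition.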

Legend:
Assay in all cases: NCI anticancer screen, dose series, 48 h
SF-295 CNS = tested on: SF-295 CNS
MOLT-4 leukemia = tested on: MOLT-4 leukemia
RXF 393 renal = tested on: RXF 393 renal
U251 CNS = tested on: U251 CNS
T-47D breast = tested on: T-47D breast
UACC-257 melanoma = tested on: UACC-257 melanoma
SN12C renal = tested on: SN12C renal
SW-620 colon = tested on: SW-620 colon
SR leukemia = tested on: SR leukemia
NCI-H522 lung = tested on: NCI-H522 lung

Row | Structure (SMILES) | GI50 (SF-295 CNS) | TGI (SF-295 CNS) | GI50 (MOLT-4 leukemia) | TGI (MOLT-4 leukemia) | GI50 (RXF 393 renal) | TGI (RXF 393 renal) | GI50 (U251 CNS) | TGI (U251 CNS) | GI50 (T-47D breast) | TGI (T-47D breast) | GI50 (UACC-257 melanoma) | TGI (UACC-257 melanoma) | GI50 (SN12C renal) | TGI (SN12C renal) | GI50 (SW-620 colon) | TGI (SW-620 colon) | GI50 (SR leukemia) | TGI (SR leukemia) | TGI (NCI-H522 lung) | GI50 (NCI-H522 lung)
1 | CC1(O)COCCCCOc2c(CN)cccc2NC(=O)c2nc(cnc2N)-c2ccc(cc2)S(=O)(=O)C(C)(C)C1 (stereo not drawn) | 1.43 µM | 2.84 µM | 0.019 µM | 2.4 µM | 0.015 µM | 1.87 µM | 0.715 µM | 2.22 µM | 1.44 µM | 3.27 µM | 1.76 µM | 3.35 µM | 1.27 µM | 2.66 µM | 0.42 µM | 1.98 µM | < 0.01 µM | 0.391 µM | – | –
2 | Cc1c2cc[n+](C)cc2c(C)c2c1oc1ccccc12 | – | 12.2 µM | – | 28.7 µM | – | 70.3 µM | – | 3.37 µM | – | – | – | 17.9 µM | – | 4.57 µM | – | 51.4 µM | – | 30.5 µM | 8.17 µM | –
3 | COc1ccc2c(c1)/C(=C\c1c(Cl)n(-c3ccccc3)c3ccccc13)C(=O)N2 | – | 25.9 µM | – | > 100 µM | – | 11.2 µM | – | 38.5 µM | – | 75.4 µM | – | 50.8 µM | – | 35.5 µM | – | > 100 µM | – | > 100 µM | – | –
4 | O=C(NC(Cc1ccc(I)cc1)C(=O)O)c1ccc(Cl)cc1 (stereo not drawn) | – | > 100 µM | – | > 100 µM | – | – | – | > 100 µM | – | – | – | > 100 µM | – | > 100 µM | – | > 100 µM | – | – | > 100 µM | –
5 | CO/N=C(\C)c1cccc(Nc2nc3ccccc3c3occc23)c1 | – | 25.9 µM | – | 37.3 µM | – | 27.2 µM | – | 33.2 µM | – | 31.3 µM | – | 3.69 µM | – | 26.9 µM | – | – | – | 34.2 µM | – | –
6 | CC1C(=O)C(C)C(c2ccco2)N(N=O)C1c1ccco1 (stereo not drawn) | – | > 100 µM | – | > 100 µM | – | > 100 µM | – | > 100 µM | – | – | – | > 100 µM | – | > 100 µM | – | > 100 µM | – | – | > 100 µM | –
7 | CSc1ccc(/C=C2\N=C(c3ccccc3)N(/N=C3\C(=O)Nc4ccccc43)C2=O)cc1 | – | > 100 µM | – | > 100 µM | – | > 100 µM | – | > 100 µM | – | > 100 µM | – | > 100 µM | – | > 100 µM | – | > 100 µM | – | > 100 µM | > 100 µM | –
8 | COC(=O)c1ccccc1C1=C([N+](=O)[O-])C(c2cccc(Br)c2)C(C#N)=C(N)O1 (stereo not drawn) | – | > 100 µM | – | > 100 µM | – | 41.9 µM | – | > 100 µM | – | 84.6 µM | – | > 100 µM | – | > 100 µM | – | 71.4 µM | – | > 100 µM | 29.2 µM | –
9 | CCO[C@]12CCC[C@H]1[C@@H]1C(=O)c3ccccc3C(=O)C1=C(C)O2 | – | > 100 µM | – | > 100 µM | – | 56.4 µM | – | > 100 µM | – | > 100 µM | – | > 100 µM | – | > 100 µM | – | > 100 µM | – | 59.1 µM | > 100 µM | –
10 | O=C1OC2(OC2c2ccc(Cl)cc2)c2ccccc21 (stereo not drawn) | – | > 100 µM | – | > 100 µM | – | > 100 µM | – | – | – | – | – | – | – | > 100 µM | – | > 100 µM | – | > 100 µM | > 100 µM | –
11 | COc1cc([N+](=O)[O-])ccc1NC(=O)c1cccc([N+](=O)[O-])c1O | – | 81.6 µM | – | > 100 µM | – | – | – | > 100 µM | – | – | – | 63.7 µM | – | 71.8 µM | – | > 100 µM | – | > 100 µM | 39 µM | –
12 | CCSc1nc(-c2cccs2)nc2ccc(I)cc12 | – | > 100 µM | – | > 100 µM | – | > 100 µM | – | > 100 µM | – | 6.88 µM | – | > 100 µM | – | > 100 µM | – | > 100 µM | – | > 100 µM | > 100 µM | –
13 | CCCCCCCN(CCCCCCC)CC(O)c1cc2ccccc2c2cc(Br)ccc12 (stereo not drawn) | – | – | – | > 100 µM | – | – | – | 45.6 µM | – | > 100 µM | – | > 100 µM | – | 46.7 µM | – | > 100 µM | – | > 100 µM | > 100 µM | –
14 | CCc1ccc2c(c1)C(=O)c1c-2n(CCCN)c(=O)c2cc([N+](=O)[O-])ccc12 | 1.07 µM | 2.47 µM | – | – | – | – | 1.07 µM | 2.29 µM | 1.28 µM | 2.91 µM | 1.88 µM | 3.42 µM | 1.48 µM | 2.95 µM | – | – | – | – | 2.7 µM | 1.23 µM
15 | Oc1ccc(-c2nc3cc(F)ccc3s2)cc1 | – | 48.6 µM | – | > 100 µM | – | 71.9 µM | – | 42.6 µM | – | 33.7 µM | – | 69.6 µM | – | 53.3 µM | – | > 100 µM | – | 16 µM | 30.7 µM | –
16 | c1ccc([P+](c2ccccc2)(c2ccccc2)c2ccc(-c3ccc([P+](c4ccccc4)(c4ccccc4)c4ccccc4)cc3)cc2)cc1 | – | 76.9 µM | – | > 100 µM | – | > 100 µM | – | > 100 µM | – | > 100 µM | – | 63 µM | – | 97.1 µM | – | > 100 µM | – | – | 64.4 µM | –
